Values joined by “and” are separate entries in the source; they are usually repeats but may differ in a detail not shown here. Identical values can stand only once. Toxic doses and inconclusive results are not listed. No stated cut-off is given here; in the data, active means T/C of 150% or more; inactive means T/C below 125%.
Tested on: L1210 leukemia ip in BDF1 mice, survival T/C
Experiment: NCI In Vivo Anticancer Drug Screen. Data for tumor model L1210 Leukemia (intraperitoneal) in B6D2F1 (BDF1) mice
Settings: endpoint: mean survival time, higher = longer survival
In short: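 Value reflects the ratio of survival in compound-treated mice to survival in vehicle-treated controls, with both groups carrying the same transplanted tumor.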

[1] = dose: 50.0 mg/kg/injection, schedule: Q01DX001 (ip), vehicle: carboxymethylcellulose (CMC)
[2] = dose: 100.0 mg/kg/injection, schedule: Q01DX001 (ip), vehicle: carboxymethylcellulose (CMC)
[3] = dose: 200.0 mg/kg/injection, schedule: Q01DX001 (ip), vehicle: carboxymethylcellulose (CMC)
[4] = dose: 100.0 mg/kg/injection, schedule: Q01DX001 (ip), vehicle: other
[5] = dose: 200.0 mg/kg/injection, schedule: Q01DX001 (ip), vehicle: other
[6] = dose: 400.0 mg/kg/injection, schedule: Q01DX001 (ip), vehicle: other
[7] = dose: 100.0 mg/kg/injection, schedule: Q01DX009 (ip), vehicle: saline with Tween-80
[8] = dose: 100.0 mg/kg/injection, schedule: Q04DX003 (ip), vehicle: saline with Tween-80
[9] = dose: 200.0 mg/kg/injection, schedule: Q04DX003 (ip), vehicle: saline with Tween-80
[10] = dose: 400.0 mg/kg/injection, schedule: Q04DX003 (ip), vehicle: saline with Tween-80
[11] = dose: 100.0 mg/kg/injection, schedule: Q01DX001 (ip), vehicle: saline
[12] = dose: 200.0 mg/kg/injection, schedule: Q01DX001 (ip), vehicle: saline
[13] = dose: 400.0 mg/kg/injection, schedule: Q01DX001 (ip), vehicle: saline
[14] = dose: 100.0 mg/kg/injection, schedule: Q01DX009 (ip), vehicle: Klucel (hydroxypropylcellulose) (HPC)
[15] = dose: 200.0 mg/kg/injection, schedule: Q01DX009 (ip), vehicle: Klucel (hydroxypropylcellulose) (HPC)
[16] = dose: 50.0 mg/kg/injection, schedule: Q01DX009 (ip), vehicle: other
[17] = dose: 100.0 mg/kg/injection, schedule: Q01DX009 (ip), vehicle: other
[18] = dose: 200.0 mg/kg/injection, schedule: Q01DX009 (ip), vehicle: other
[19] = dose: 100.0 mg/kg/injection, schedule: Q04DX002 (ip), vehicle: Klucel (hydroxypropylcellulose) (HPC)
[20] = dose: 400.0 mg/kg/injection, schedule: Q01DX009 (ip), vehicle: Klucel (hydroxypropylcellulose) (HPC)

Measured: T/C

CN1N=Nc2cccc3cccc1c23
inactive: dose: 50.0 mg/kg/injection, schedule: Q01DX009 (ip), vehicle: acetone 112 % of control | dose: 100.0 mg/kg/injection, schedule: Q01DX009 (ip), vehicle: acetone 107 % of control | dose: 100.0 mg/kg/injection, schedule: Q04DX003 (ip), vehicle: acetone 94 % of control | dose: 200.0 mg/kg/injection, schedule: Q04DX003 (ip), vehicle: acetone 87 % of control

Oc1ccc(Cl)cc1/C=N\NC(=S)Nc1ccc2cn[nH]c2c1
inactive: [1] 102 % of control | [2] 86 % of control | [3] 102 % of control

O=[N+]([O-])c1ccc(CCc2ccc([N+](=O)[O-])cc2)cc1
inactive: dose: 50.0 mg/kg/injection, schedule: Q01DX001 (ip), vehicle: other 91 % of control | [4] 95 % of control | [5] 97 % of control | [6] 95 % of control

NC1CC[N-]CC1.NC1CC[N-]CC1.NC1CC[N-]CC1.NC1CC[N-]CC1.[Cl][Rh][Cl]
inactive: dose: 6.25 mg/kg/injection, schedule: Q01DX009 (ip), vehicle: saline with Tween-80 100 % of control | dose: 12.5 mg/kg/injection, schedule: Q01DX009 (ip), vehicle: saline with Tween-80 96 % of control | dose: 25.0 mg/kg/injection, schedule: Q01DX009 (ip), vehicle: saline with Tween-80 104 % of control

N#Cc1cc2ccccc2n(O)c1=N
inactive: dose: 75.0 mg/kg/injection, schedule: Q04DX003 (ip), vehicle: saline 93 % of control | dose: 150.0 mg/kg/injection, schedule: Q04DX003 (ip), vehicle: saline 109 % of control | dose: 300.0 mg/kg/injection, schedule: Q04DX003 (ip), vehicle: saline 107 % of control

O=C(O)C(c1cccs1)c1cccs1
inactive: [7] 102 % of control | [8] 102 % of control | dose: 200.0 mg/kg/injection, schedule: Q01DX009 (ip), vehicle: saline with Tween-80 88 % of control | [9] 92 % of control | dose: 400.0 mg/kg/injection, schedule: Q01DX009 (ip), vehicle: saline with Tween-80 105 % of control | [10] 103 % of control

c1ccc2c(c1)ncc1cccn12
inactive: [11] 103 % of control | [12] 103 % of control | [13] 103 % of control

Cc1cc2nc(NC(=O)C3CC3)sc2cc1C
inactive: [14] 91 % of control | [15] 91 % of control

Nc1ccccn1
inactive: dose: 12.5 mg/kg/injection, schedule: Q04DX002 (ip), vehicle: saline 100 % of control | dose: 25.0 mg/kg/injection, schedule: Q04DX002 (ip), vehicle: saline 89 % of control

CC(C)c1ccc(C2(C)CCCCC2=O)cc1 (stereo not given)
inactive: [4] 101 % of control | [5] 103 % of control | [6] 93 % of control

O=c1c(-c2ccccc2)c(-c2ccccc2)n2n1C1CCC2C1 (stereo not given)
inactive: [11] 95 % of control | [12] 89 % of control | [13] 110 % of control

Nc1nc(Cl)nc2c1ncn2C1CC(O)C(CO)O1 (stereo not given)
inactive: dose: 44.4 mg/kg/injection, schedule: Q01DX001 (ip), vehicle: carboxymethylcellulose (CMC) 118 % of control | [1] 109 % of control | dose: 66.6 mg/kg/injection, schedule: Q01DX001 (ip), vehicle: carboxymethylcellulose (CMC) 112 % of control | [2] 109 % of control and 118 % of control | [3] 120 % of control and 124 % of control | dose: 400.0 mg/kg/injection, schedule: Q01DX001 (ip), vehicle: carboxymethylcellulose (CMC) 102 % of control

NNC(=O)NO
inactive: dose: 33.0 mg/kg/injection, schedule: Q01DX009 (ip), vehicle: saline 114 % of control | dose: 75.0 mg/kg/injection, schedule: Q01DX001 (ip), vehicle: saline 101 % of control | dose: 150.0 mg/kg/injection, schedule: Q01DX001 (ip), vehicle: saline 103 % of control

CCN(CC)CC(Cl)CN(CC)CC
inactive: dose: 50.0 mg/kg/injection, schedule: Q01DX009 (ip), vehicle: saline with Tween-80 104 % of control | [7] 87 % of control | [8] 97 % of control | [9] 88 % of control

Cn1ncn(/N=C/c2ccc([N+](=O)[O-])o2)c1=O
inactive: dose: 12.5 mg/kg/injection, schedule: Q01DX009 (ip), vehicle: other 91 % of control | dose: 25.0 mg/kg/injection, schedule: Q01DX009 (ip), vehicle: other 93 % of control | [16] 91 % of control | [17] 87 % of control | [18] 87 % of control

OC12c3ccccc3C(O)(c3ccccc31)C1c3ccccc3C2c2ccccc21
inactive: dose: 50.0 mg/kg/injection, schedule: Q04DX002 (ip), vehicle: Klucel (hydroxypropylcellulose) (HPC) 101 % of control | [19] 93 % of control

CC(=O)Nc1ccc(S(=O)(=O)F)cc1C
inactive: [14] 98 % of control | [15] 95 % of control

CCCCCCCNC(=O)OCC
inactive: dose: 55.0 mg/kg/injection, schedule: Q01DX Z (ip), vehicle: methylcellulose (MC) 93 % of control | dose: 83.0 mg/kg/injection, schedule: Q01DX Z (ip), vehicle: methylcellulose (MC) 93 % of control | dose: 125.0 mg/kg/injection, schedule: Q01DX Z (ip), vehicle: methylcellulose (MC) 104 % of control

O=[N+]([O-])c1cc(COc2ccc(Cl)c(Cl)c2)ccc1Cl
inactive: [14] 95 % of control | [19] 97 % of control and 98 % of control and 102 % of control | [15] 93 % of control | dose: 200.0 mg/kg/injection, schedule: Q04DX002 (ip), vehicle: Klucel (hydroxypropylcellulose) (HPC) 96 % of control and 97 % of control and 110 % of control | dose: 200.0 mg/kg/injection, schedule: Q04DX002 (ip), vehicle: saline 102 % of control | [20] 96 % of control | dose: 400.0 mg/kg/injection, schedule: Q04DX002 (ip), vehicle: Klucel (hydroxypropylcellulose) (HPC) 93 % of control and 99 % of control and 103 % of control | dose: 400.0 mg/kg/injection, schedule: Q04DX002 (ip), vehicle: saline 97 % of control

Nc1nc(N)nc(-c2ccccc2NN=Nc2ccccc2[N+](=O)[O-])n1
inactive: [14] 103 % of control | [15] 97 % of control | [20] 100 % of control

CC[N+](C)(CC)c1ccc(/C=N\N(C)C)cc1
inactive: dose: 6.25 mg/kg/injection, schedule: Q01DX009 (ip), vehicle: Klucel (hydroxypropylcellulose) (HPC) 96 % of control | dose: 12.5 mg/kg/injection, schedule: Q01DX009 (ip), vehicle: Klucel (hydroxypropylcellulose) (HPC) 108 % of control | dose: 25.0 mg/kg/injection, schedule: Q01DX009 (ip), vehicle: Klucel (hydroxypropylcellulose) (HPC) 86 % of control

CCOC(=O)c1cnc(SC)nc1Nc1cc(Cl)cc(Cl)c1
inactive: [8] 89 % of control | [9] 87 % of control | [10] 91 % of control

Nc1ncnc2scnc12
inactive: [11] 102 % of control | [12] 99 % of control | [13] 100 % of control

CCSc1ccc2c(cc1=O)[C@@H](NC1OC(CO)C(O)C(O)C1O)CCc1cc(OC)c(OC)c(OC)c1-2 (stereo not given in full)
inactive: [16] 105 % of control | [17] 102 % of control | [18] 114 % of control | dose: 400.0 mg/kg/injection, schedule: Q01DX009 (ip), vehicle: other 114 % of control

Source: PubChem BioAssay AID248 (DTP/NCI, 2004)
